Source: patent publication US7498350B2, “Oxazolidinones as antibacterial agents” (AstraZeneca AB, priority 2002, dated 2009)
Converted amounts (≈) assume the structure as drawn.

Experiments:
Assay type in all cases: cell-based
Enterococcus faecium = assay: MIC by agar dilution, Enterococcus faecium; settings: agar with 5% defibrinated horse blood, 10^4 CFU/spot, 37° C., 5% carbon dioxide, 48 hours
Protocol: (§1) The following results were obtained on a standard in-vitro test system. The activity is described in terms of the minimum inhibitory concentration (MIC) determined by the agar-dilution technique with an inoculum size of 10^4 CFU/spot. Typically, compounds are active in the range 0.01 to 256 μg/ml.
(§2) Streptococci and enterococci were tested on agar supplemented with 5% defibrinated horse blood, an inoculum of 10^4 CFU/spot and an incubation temperature of 37° C. in an atmosphere of 5% carbon dioxide for 48 hours—blood is required for the growth of some of the test organisms. Fastidious Gram negative organisms were tested in Mueller-Hinton broth supplemented with hemin and NAD, grown aerobically for 24 hours at 37° C., and with an innoculum of 5×10^4 CFU/well.

[1] = tested on: Linezolid Resistant Streptococcus pneumoniae; assay: MIC by agar dilution, Linezolid Resistant Streptococcus pneumoniae; settings: agar with 5% defibrinated horse blood, 10^4 CFU/spot, 37° C., 5% carbon dioxide, 48 hours
Protocol: as §1, §2

Haemophilus influenzae = assay: MIC, Haemophilus influenzae (fastidious Gram negative, Mueller-Hinton broth); settings: Mueller-Hinton broth with hemin and NAD, 24 hours, 37° C., 5×10^4 CFU/well
Protocol: as §1, §2

[2] = tested on: Staphylococcus aureus MSQS (methicillin sensitive and quinolone sensitive); assay: MIC by agar dilution, Staphylococcus aureus MSQS; settings: 10^4 CFU/spot, 37° C., 24 hours
Protocol: as §1
(§3) Staphylococci were tested on agar, using an inoculum of 10^4 CFU/spot and an incubation temperature of 37° C. for 24 hours—standard test conditions for the expression of methicillin resistance.

Moraxella catarrhalis = assay: MIC, Moraxella catarrhalis (fastidious Gram negative, Mueller-Hinton broth); settings: Mueller-Hinton broth with hemin and NAD, 24 hours, 37° C., 5×10^4 CFU/well
Protocol: as §1, §2

Streptococcus pneumoniae = assay: MIC by agar dilution, Streptococcus pneumoniae; settings: agar with 5% defibrinated horse blood, 10^4 CFU/spot, 37° C., 5% carbon dioxide, 48 hours
Protocol: as §1, §2

[3] = tested on: Staphylococcus aureus MRQR (methicillin resistant and quinolone resistant); assay: MIC by agar dilution, Staphylococcus aureus MRQR; settings: 10^4 CFU/spot, 37° C., 24 hours
Protocol: as §1, §3

Cn1nnc(-c2ccc(-c3ccc(N4C[C@H](Cn5ccnn5)OC4=O)cc3F)cn2)n1 [Example 1, (5R)-3-(3-Fluoro-4-(6-(2-methyl-2H-tetrazol-5-yl)pyrid-3-yl)phenyl)-5-(1H-1,2,3-triazol-1-ylmethyl)-1,3-oxazolidin-2-one]
MIC (Enterococcus faecium): 0.25 µg/mL (≈ 0.593 µM)
MIC [1]: 0.5 µg/mL (≈ 1.19 µM)
MIC (Haemophilus influenzae): 2 µg/mL (≈ 4.75 µM)
MIC [2]: 0.25 µg/mL (≈ 0.593 µM)
MIC (Moraxella catarrhalis): 0.25 µg/mL (≈ 0.593 µM)
MIC (Streptococcus pneumoniae): < 0.06 µg/mL
MIC [3]: 0.25 µg/mL (≈ 0.593 µM)
